For orientation: Tmax means the time from dosing to the highest level.

Series [1] can be described thus: Local tolerability of intranasal aqueous solution. The format is in vivo. Particulars: 45.00 mg/mL, pH 4.8. The protocol:
The proposed formulations are calculated for a single puff of 50 µL/nostril.

Series [2] in a line: pH of the tizanidine hydrochloride solutions. The format is physicochemical. To be noted: Tizanidine.HCl aqueous solutions, no excipients.
Series [3] in a line: Preliminary pharmacokinetics of tizanidine solutions in rabbits (IN, IM, PO). Particulars: 3.00 mg/kg of tizanidine hydrochloride. The format is in vivo. The protocol: Preliminary pharmacokinetic data in rabbits at the dose of 3.00 mg/kg of tizanidine hydrochloride by intranasal (IN), intramuscular (IM), and oral route (PO) were performed to test the intranasal absorption without any enhancer.

The conditions of series [4]: cited from earlier work.
For series [5] the following is noted: animal data, local administration; cited from earlier work.

Structures are written as SMILES. Where a name gives a salt, the structure may show the parent alone.

Take `Clc1ccc2nsnc2c1NC1=NCCN1` [Tizanidine.HCl]: in series [1], the “tolerability by the nasal mucosa (redness or pain)” value is given as “tolerated by the nasal mucosa without any local side effect”. This molecule also gave a pH in series [2] of 4.8.

For the molecule `Clc1ccc2nsnc2c1NC1=NCCN1` [Tizanidine, 5-chloro-N-(4,5-dihydro-1H-imidazol-2-yl)-2,1,3-benzothia-diazol-4-amine], the bioavailability entry in series [3] (intranasal (IN) compared with intramuscular (IM)) is on record as “close to that of intramuscular route (IM)”. In series [3] (intranasal (IN), without any enhancer), the intranasal absorption result is on record as “rapidly absorbed”. In addition, the “absorption by oral route” value in series [4] (extensive first-pass effect) is “well and rapidly absorbed”. Moreover, in series [4] (oral route), the T1/2z is 1 to 2 h and the Tmax is 1 to 2 h. The “activity compared with clonidine” value in series [5] was “equivalent activity”.

Source of the values: patent publication EP2338473A1, “Pharmaceutical dosage forms of tizanidine and administration routes thereof” (MDM S.p.A., priority 2009, dated 2011).
